In US9186361B2, “Compounds and compositions for the treatment of parasitic diseases” (Novartis AG, priority 2013, dated 2015):

Key:
Format in all cases: cell-based
[1] = test system: L. donovani HU3 strain in mouse peritoneal macrophages; test: Proliferation of L. donovani in mouse peritoneal macrophages (SybrGreen, high-content imaging); conditions: Leishmania donovani, Peritoneal macrophage, 120 h; infected mouse peritoneal macrophages, 5 days; read-out: L. donavani Macrophage EC50
Summary of the method: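 Peritoneal macrophages from uninfected BALB/c mice were infected for 24 h with spleen-derived amastigotes (9-11 week infected mice), then exposed to compound for 5 days at 37° C. Fixed cells stained with SybrGreen and parasite nuclei counted by high-content imaging; EC50 calculated from inhibition.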

[2] = test system: Leishmania donovani axenic amastigote parasites; test: Assay for Leishmania proliferation in vitro (axenic amastigotes, Cell TiterGlo); conditions: 48 h, 2 day incubation, read-out: L. donovani amastigotes EC50
Summary of the method: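 L. donovani axenic amastigotes (9600 per well) are cultured with compound for 2 days at 37° C, 5% CO2 in RPMI-based medium at pH 5.5. Viability is read by CellTiterGlo luminescence, and EC50 is calculated.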

[3] = test system: Trypanosoma brucei Lister 427 strain; test: Assay for proliferation of kinetoplastid parasite Trypanosoma brucei (Cell Titer Glo); conditions: bloodstream form, 48 hours, read-out: T. brucei EC50
Source text: The proliferation is quantified by the addition of Cell Titer Glo (Promega®) a luminescent cell viability assay that measures the number of viable cells in culture based on the quantification of cellular ATP amount, which is an indicator of metabolically active cells. The following assay illustrates the invention without in any way limiting the scope of the invention. This parasite proliferation assay measures the increase in parasite growth using an assay that measures ATP activity, Cell Titer Glo®.
Trypanosoma brucei Lister 427 strain is grown in HMI-9 Trypanosome media for T. brucei bloodstream form. 30 μl of HMI-9 media is dispensed into 384 well assay plates. 200 nL of compounds of the invention (in DMSO), including anti-trypanosome controls (Pentamidine and suramin), are then transferred into the assay plates, as well as DMSO alone to serve as a negative control for inhibition. Then 25 μl of a suspension of T. brucei culture in HMI-9 media is dispensed into the assay plates. The final concentration of parasites in culture corresponds to 1.7% of 0.5 uM ATP activity with Cell Titer Glo® in HMI-9 media. The plates are placed in a 37° C. incubator for 48 hours in an atmospheric environment containing 5% CO2. 40 μl of Cell Titer Glo® is dispensed into the plates. The plates are then read for luminescence. The percentage inhibition of 50%, EC50, is calculated for each compound.

[4] = test system: Trypanosoma cruzi amastigotes cultured in 3T3 fibroblast cells; test: Assay for proliferation of kinetoplastid parasite Trypanosoma cruzi (beta-galactosidase/CPRG readout); conditions: NIH3T3, 144 h, Tulahuen strain in 3T3 cells, 6 day incubation, read-out: T cruzi EC50
Source text: Compounds of the invention can be assayed to measure their capacity to inhibit proliferation of kinetoplastid parasite Trypanosoma cruzi. The screening procedure is for identifying compounds with inhibitor activity against Trypanosoma cruzi amastigotes cultured in 3T3 fibroblast cells. The assay is done using the mammalian stage (amastigotes) of T. cruzi that replicates in the intracellular space of host cells. The host cells are initially infected with the culture-derived trypomastigotes that rapidly invade and then divide as amastigotes. The protocol uses the Tulahuen strain of T. cruzi that has been engineered to express the E. coli beta-galactosidase gene (Lac-Z) (Antimicr. Agents Chemoth. 40:2592, 1996). This allows for a colorimetric readout by using the substrate CPRG and an absorbance plate reader.
3T3 fibroblast cells are re-suspended in RPMI-1640 medium without phenol red medium supplemented with 10% FBS (heat inactivated), 100 μg/ml penicillin, and 100 μg/ml streptomycin. Forty μL of suspension (1,000 cells) is dispensed into 384-well plates and incubated overnight at 37° C. temperature and in atmosphere containing 5% CO2. The following day, 100 nL of compounds of the invention in DMSO are added to plate wells containing 3T3 cells. At the same time control compounds (benznidazole and nifurtimox) and DMSO are added to plates to serve as the positive and negative controls, respectively. After that, 10 μL of media containing 10,000 T. cruzi trypomastigotes are added to each plate well and plates are placed back into incubators. After 6 day incubation, 10 μL of reagent solution (0.6 mM CPRG, 0.6% NP-40 in PBS) is added to plates and incubated at room temperature for 2 hours. Absorbance is then measured on SpectraMax Gemini fluorimeter to determine relative number of T. cruzi cells present in each plate well. The percentage inhibition of 50%, EC50, is calculated for each compound.

SMILES: CC(C)OC(=O)Nc1cnc2nc(-c3cc(NC(=O)c4ccco4)ccc3Cl)[nH]c2c1 [Example 2, propan-2-yl N-{2-[2-chloro-5-(furan-2-amido)phenyl]-1H-imidazo[4,5-b]pyridin-6-yl}carbamate]
- EC50 [1]: 0.315 µM
- EC50 [2]: 0.19 µM
- EC50 [3]: 0.039 µM
- EC50 [4]: 0.142 µM

SMILES: CCOC(=O)Nc1cnc2nc(-c3cccc(NC(=O)c4ccc(F)o4)c3)[nH]c2c1 [Example 3, ethyl N-{2-[3-(5-fluorofuran-2-amido)phenyl]-1H-imidazo[4,5-b]pyridin-6-yl}carbamate]
- EC50 [1]: 2.47 µM
- EC50 [2]: 7.7 µM
- EC50 [3]: 0.23 µM
- EC50 [4]: 2.23 µM

SMILES: CC(C)(COC(=O)Nc1cnc2nc(-c3cc(NC(=O)c4ccco4)ccc3Cl)[nH]c2c1)NC(=O)OC(C)(C)C [Example 15, tert-butyl N-{1-[({2-[2-chloro-5-(furan-2-amido)phenyl]-1H-imidazo[4,5-b]pyridin-6-yl}carbamoyl)oxy]-2-methylpropan-2-yl}carbamate]
- EC50 [1]: 8.7 µM
- EC50 [2]: 5.1 µM
- EC50 [3]: 0.64 µM
- EC50 [4]: 1.85 µM

SMILES: Nc1cnc2nc(-c3cc(NC(=O)c4ccco4)ccc3Cl)[nH]c2c1 [Example 20, N-(3-{6-amino-1H-imidazo[4,5-b]pyridin-2-yl}-4-chlorophenyl)furan-2-carboxamide]
- EC50 [1]: 18.9 µM
- EC50 [2]: 13.6 µM
- EC50 [3]: 1.38 µM
- EC50 [4]: 4.7 µM

SMILES: O=C(Nc1cccnc1)Nc1cnc2nc(-c3cc(NC(=O)c4ccco4)ccc3Cl)[nH]c2c1 [Example 21, N-[4-chloro-3-(6-{[(pyridin-3-yl)carbamoyl]amino}-1H-imidazo[4,5-b]pyridin-2-yl)phenyl]furan-2-carboxamide]
- EC50 [1]: > 50 µM
- EC50 [2]: 17.7 µM
- EC50 [3]: 1.59 µM
- EC50 [4]: > 20 µM

SMILES: CC(C)(CO)C(=O)Nc1cnc2nc(-c3cc(NC(=O)c4ccco4)ccc3Cl)[nH]c2c1 [Example 22, N-{4-chloro-3-[6-(3-hydroxy-2,2-dimethylpropanamido)-1H-imidazo[4,5-b]pyridin-2-yl]phenyl}furan-2-carboxamide]
- EC50 [1]: > 50 µM
- EC50 [2]: 20.7 µM
- EC50 [3]: 0.76 µM

SMILES: CC(C)(N)C(=O)Nc1cnc2nc(-c3cc(NC(=O)c4ccco4)ccc3Cl)[nH]c2c1 [Example 26, N-{3-[6-(2-amino-2-methylpropanamido)-1H-imidazo[4,5-b]pyridin-2-yl]-4-chlorophenyl}furan-2-carboxamide]
- EC50 [1]: 23.3 µM
- EC50 [2]: > 25 µM
- EC50 [3]: 0.53 µM
- EC50 [4]: 14.8 µM

SMILES: O=C(C[C@@H]1CCNC1)Nc1cnc2nc(-c3cc(NC(=O)c4ccco4)ccc3Cl)[nH]c2c1 [Example 32, N-[4-chloro-3-(6-{2-[(3S)-pyrrolidin-3-yl]acetamido}-1H-imidazo[4,5-b]pyridin-2-yl)phenyl]furan-2-carboxamide]
- EC50 [1]: > 50 µM
- EC50 [2]: > 25 µM
- EC50 [3]: 7.8 µM
- EC50 [4]: > 20 µM

SMILES: O=C(C[C@H]1CCNC1)Nc1cnc2nc(-c3cc(NC(=O)c4ccco4)ccc3Cl)[nH]c2c1 [Example 34, N-[4-chloro-3-(6-{2-[(3R)-pyrrolidin-3-yl]acetamido}-1H-imidazo[4,5-b]pyridin-2-yl)phenyl]furan-2-carboxamide]
- EC50 [1]: > 50 µM
- EC50 [2]: > 25 µM
- EC50 [3]: 15.2 µM
- EC50 [4]: > 20 µM

SMILES: O=C(Nc1ccc(Cl)c(-c2nc3ncc(NC(=O)C4(O)CC4)cc3[nH]2)c1)c1ccco1 [Example 35, N-(4-chloro-3-{6-[(1-hydroxycyclopropane)amido]-1H-imidazo[4,5-b]pyridin-2-yl}phenyl)furan-2-carboxamide]
- EC50 [1]: > 50 µM
- EC50 [2]: 11.4 µM
- EC50 [3]: 0.907 µM
- EC50 [4]: > 20 µM

SMILES: N#CC1(C(=O)Nc2cnc3nc(-c4cc(NC(=O)c5ccco5)ccc4Cl)[nH]c3c2)CC1 [Example 41, N-(4-chloro-3-{6-[(1-cyanocyclopropane)amido]-1H-imidazo[4,5-b]pyridin-2-yl}phenyl)-furan-2-carboxamide]
- EC50 [1]: 1.45 µM
- EC50 [2]: 0.68 µM
- EC50 [3]: 0.08 µM
- EC50 [4]: 0.82 µM

SMILES: COCC1(C(=O)Nc2cnc3nc(-c4cc(NC(=O)c5ccco5)ccc4Cl)[nH]c3c2)CC1 [Example 42, N-[4-chloro-3-(6-{[1-(methoxymethyl)cyclopropane]amido}-1H-imidazo[4,5-b]pyridin-2-yl)phenyl]furan-2-carboxamide]
- EC50 [1]: 1.91 µM
- EC50 [2]: 1.09 µM
- EC50 [3]: 0.185 µM
- EC50 [4]: 1.32 µM

SMILES: O=C(Nc1ccc(Cl)c(-c2nc3ncc(NC(=O)C4CC4(F)F)cc3[nH]2)c1)c1ccco1 (stereo not shown) [Example 44, N-(4-chloro-3-{6-[(2,2-difluorocyclopropane)amido]-1H-imidazo[4,5-b]pyridin-2-yl}phenyl)furan-2-carboxamide]
- EC50 [1]: 5.3 µM
- EC50 [2]: 2.38 µM
- EC50 [3]: 0.282 µM
- EC50 [4]: 3.9 µM

SMILES: O=C(Nc1ccc(Cl)c(-c2nc3ncc(NC(=O)C4CC4)cc3[nH]2)c1)c1ccco1 [Example 45, N-(4-chloro-3-{6-cyclopropaneamido-1H-imidazo[4,5-b]pyridin-2-yl}phenyl)-furan-2-carboxamide]
- EC50 [1]: 1.16 µM
- EC50 [2]: 0.45 µM
- EC50 [3]: 0.115 µM
- EC50 [4]: 2.86 µM

SMILES: CC(C)OC(=O)Nc1cnc2nc(-c3cc(NC(=O)c4ccc(F)o4)ccc3Cl)[nH]c2c1 [Example 47, propan-2-yl N-{2-[2-chloro-5-(5-fluorofuran-2-amido)phenyl]-1H-imidazo[4,5-b]pyridin-6-yl}carbamate]
- EC50 [1]: 1.52 µM
- EC50 [2]: 0.9 µM
- EC50 [3]: 0.2 µM
- EC50 [4]: 0.4 µM

SMILES: CC(C)OC(=O)Nc1cnc2nc(-c3cc(NC(=O)c4ccc(C#N)o4)ccc3Cl)[nH]c2c1 [Example 48, propan-2-yl N-{2-[2-chloro-5-(5-cyanofuran-2-amido)phenyl]-1H-imidazo[4,5-b]pyridin-6-yl}carbamate]
- EC50 [1]: 0.56 µM
- EC50 [2]: 0.62 µM
- EC50 [3]: 0.223 µM
- EC50 [4]: 0.141 µM

SMILES: CC1(OC(=O)Nc2cnc3nc(-c4cc(NC(=O)c5ccco5)ccc4Cl)[nH]c3c2)CC1 [Example 49, 1-methylcyclopropyl N-{2-[2-chloro-5-(furan-2-amido)phenyl]-1H-imidazo[4,5-b]pyridin-6-yl}carbamate]
- EC50 [1]: 0.49 µM
- EC50 [2]: 0.48 µM
- EC50 [3]: 0.081 µM
- EC50 [4]: 0.44 µM

SMILES: CC(C)OC(=O)Nc1cnc2nc(-c3cc(NC(=O)N4CCCC4)ccc3Cl)[nH]c2c1 [Example 54, propan-2-yl N-(2-{2-chloro-5-[(pyrrolidin-1-yl)carbonylamino]phenyl}-1H-imidazo[4,5-b]pyridin-6-yl)carbamate]
- EC50 [1]: 1.86 µM
- EC50 [2]: 0.59 µM
- EC50 [3]: 0.068 µM
- EC50 [4]: 1.39 µM

SMILES: O=C(Nc1ccc(Cl)c(-c2nc3ncc(NC(=O)C4CCC4)cc3[nH]2)c1)c1ccco1 [Example 55, N-(4-chloro-3-{6-cyclobutaneamido-1H-imidazo[4,5-b]pyridin-2-yl}phenyl)furan-2-carboxamide]
- EC50 [1]: 0.83 µM
- EC50 [2]: 0.95 µM
- EC50 [3]: 0.075 µM
- EC50 [4]: 1.25 µM

SMILES: CC1(C)CC(C(=O)Nc2cnc3nc(-c4cc(NC(=O)c5ccco5)ccc4Cl)[nH]c3c2)C1 [Example 56, N-(4-chloro-3-{6-[(3,3-dimethylcyclobutane)amido]-1H-imidazo[4,5-b]pyridin-2-yl}phenyl)furan-2-carboxamide]
- EC50 [1]: 2.23 µM
- EC50 [2]: 2.96 µM
- EC50 [3]: 0.346 µM
- EC50 [4]: 1.23 µM
